Reference: US6461611B1, “Agents for the prevention of damages caused by stress conditions” (Hadasit Medical Research Services & Development Limited, priority 1998, dated 2002)

Key:
ThR mRNA = experiment: Northern blot of ThR mRNA level in neonatal rat ventricular myocytes under normal conditions or hypoxia; type: cell-based
Protocol: RNA was prepared using TRI-Reagent (Molecular Research Center, Inc. Cincinnati) according to the manufacturer's instructions. […] For the detection of ThR a 250 nucleotide PCR product was used. The membrane was washed twice for 30 mins. at room temperature with 1×SSC containing 0.1% SDS and twice for 30 mins. at 55° C. with 0.1×SSC, containing 0.1% SDS. The blots were exposed for 2-4 days at −70° C. and the relative amounts of mRNA transcripts were analyzed by laser densitometry using an Ultrascan XL Enhanced Laser Densitometer and normalized relative to an internal β-actin controls.
Primary cultures of neonatal rat ventricular mycocytes were subjected to hypoxia conditions (0% oxygen, 20 torr), and the level of ThR transcripts were compared to the level of the receptor transcripts in cells under normal oxygen levels (21% oxygen). […] The 4.1 kb mRNA was detected following hybridization with full length ThR cDNA and the intensity of the bands was quantitated by densitometry and normalized to the actin transcript levels.
The level of ThR mRNA following hypoxia, in the presence of α-thrombin was also determined. For this, rat ventricular myocytes were subjected to serum free conditions and α-thrombin (5×10^−8M) was added for a period of 48 hours and the level of ThR was determined.
Therefore the effect of interruption of the signaling cascase on the protection effect was analyzed. For this, calphostin C, a protein kinase C (PKC) inhibitor was added during the activation of ThR with TRAP.

myocytes = experiment: LDH activity released into the medium of normal and hypoxic myocytes; type: cell-based, rat; conditions: calphostin C 10 nM or 100 nM in the presence and absence of TRAP (10 μM)
Protocol: FIG. 4B. LDH levels were measured in the medium of normal (A,B,E,G) and hypoxic (C,D,F,H) myocytes. TRAP (10 μM) was added (for 48 h) to normal cells (B,E,G) or prior to subjecting the cells to hypoxia (D,F,H). Cells were treated with calphostin C at 10 nM (E,F) or 100 nM (G,H). LDH levels were determined at 340 nm.
Cell viability under hypoxia conditions was measured by lactate dehydrogenase (LDH) assay of the medium by using diagnostic kit according to the manufacturer's instructions (Sigma, St. Louis, Mo.). Released LDH is a stable enzymatic marker that correlates with cell viability. Total LDH activity was determined in culture medium plus LDH released from the cells after treatment with 0.5% Triton X-100. All results are expressed as mean±SEM of triplicate sample (I—Weiscner, M S et al., 1998. Induction of endothelial cell PAS domain protein-1 by hypoxia: characterization and comparison with hypoxia-inducible factor-1-alpha. Blood, 92(7);2260-8. II—Brooks et al., 1998. Modulation of VEGF production by pH and glucose in retinal muller cells. Curr. Eye Res., 17(9):875-882).

Substance: calphostin C
- protection of ThR transcript level under hypoxia by TRAP (ThR mRNA; hypoxia, TRAP activated ThR in the presence of calphostin C (1 nM, 100 nM)): showed no longer the protection
- level of ThR mRNA (ThR mRNA; normal conditions, calphostin C 200 nM): did not affect
- level of ThR transcripts (ThR mRNA; normal conditions, calphostin C (1 nM and 100 nM) added together with TRAP (1 μM)): did not affect
- stressed hypoxic conditions as observed by the released LDH activity (myocytes): did not affect the stressed hypoxic conditions
